Test results from patent publication US10065990B2, “Cyclic peptide compound, and preparation method, pharmaceutical composition and use thereof” (HANGZHOU GUANYU BIO-MEDICAL CO., LTD, priority 2013, dated 2018).
Read-outs that look alike come from different tables or passages of the source.

What was measured:
HDAC7 = molecular target: T1, HDAC7 (Homo sapiens, UniProt Q8WUI4); assay: HDAC biochemical activity measurement (fluorescent substrate deacetylation);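 note: fluorogenic deacetylation assay using acetyl-lysine substrate at 20 µM, enzyme and compound incubated 30 min at 37 °C, then developer added, fluorescence read at 360/460 nm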; settings: HDAC7; 37° C. 30 minutes
T1 sequence (Q8WUI4 1-952): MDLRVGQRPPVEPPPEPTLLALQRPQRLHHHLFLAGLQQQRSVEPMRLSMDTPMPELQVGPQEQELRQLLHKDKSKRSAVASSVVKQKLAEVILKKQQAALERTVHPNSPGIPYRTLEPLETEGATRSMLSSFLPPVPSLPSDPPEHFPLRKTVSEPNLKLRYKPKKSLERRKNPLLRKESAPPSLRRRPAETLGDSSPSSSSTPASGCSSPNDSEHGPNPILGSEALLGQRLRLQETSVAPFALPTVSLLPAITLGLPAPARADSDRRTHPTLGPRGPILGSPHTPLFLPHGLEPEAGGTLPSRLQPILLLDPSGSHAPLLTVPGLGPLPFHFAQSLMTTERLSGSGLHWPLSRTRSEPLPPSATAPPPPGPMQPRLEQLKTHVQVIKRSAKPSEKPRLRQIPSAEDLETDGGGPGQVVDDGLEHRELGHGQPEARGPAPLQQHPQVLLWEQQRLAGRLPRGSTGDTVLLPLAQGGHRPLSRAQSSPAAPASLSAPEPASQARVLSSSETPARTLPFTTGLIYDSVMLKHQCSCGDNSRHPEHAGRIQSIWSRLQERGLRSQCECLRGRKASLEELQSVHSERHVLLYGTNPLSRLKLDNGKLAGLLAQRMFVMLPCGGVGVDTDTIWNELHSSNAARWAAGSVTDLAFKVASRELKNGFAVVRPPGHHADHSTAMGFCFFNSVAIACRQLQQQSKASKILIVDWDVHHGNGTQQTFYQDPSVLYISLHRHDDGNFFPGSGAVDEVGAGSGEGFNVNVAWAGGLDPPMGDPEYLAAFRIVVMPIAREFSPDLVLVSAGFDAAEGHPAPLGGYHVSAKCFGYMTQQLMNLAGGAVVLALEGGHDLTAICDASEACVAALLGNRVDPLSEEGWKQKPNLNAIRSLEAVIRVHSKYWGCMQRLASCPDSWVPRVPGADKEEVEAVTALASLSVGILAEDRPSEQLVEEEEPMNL

HDAC1 = HDAC1 (Homo sapiens, UniProt Q13547); assay: as above; settings: HDAC1; 37° C. 30 minutes; read-out: IC50 HDAC1;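 note: fluorogenic acetyl-lysine substrate (20 µM) deacetylated by HDAC1, then developer releases fluorophore read at 360 nm excitation and 460 nm emission, inhibitor incubated 30 min at 37 °C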
[1] = test system: Bel-7402 (human hepatoma cells); assay: MTT cancer cell growth inhibition; assay type: cell-based; settings: MTT, 72 hours incubation, Bel-7402 cells, read-out: GI50 Bel-7402
Outline: (§1)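 Absorbance at 570 nm of DMSO-dissolved formazan, formed during a 4 h MTT incubation, served as the viability measure. Cells had been exposed 72 h to drug at 10^−5–10^−10 M final; GI50 was calculated from these readings.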

[2] = test system: BGC-823 (human gastric cancer cells); assay: MTT cancer cell growth inhibition; assay type: cell-based; settings: MTT, 72 hours incubation, read-out: GI50 BG
Outline: as §1

[3] = test system: U937 (human leukemia cells); assay: MTT cancer cell growth inhibition; assay type: cell-based; settings: Homo sapiens, U-937, 72 h, MTT, 72 hours incubation; read-out: GI50 U93
Outline: as §1

[4] = test system: SGC-7901 (human gastric cancer cells); assay: MTT cancer cell growth inhibition; assay type: cell-based; settings: MTT, 72 hours incubation, SGC-7901 cells, read-out: GI50 SGC-7901
Outline: as §1

[5] = test system: A549 (human lung cancer cells); assay: MTT cancer cell growth inhibition; assay type: cell-based; settings: Homo sapiens, A549, 72 h, MTT, 72 hours incubation; read-out: GI50 A54
Outline: as §1

[6] = test system: MDA-MB-231 (breast cancer cells); assay: MTT cancer cell growth inhibition; assay type: cell-based
Outline: as §1

[7] = test system: MOLT-4 (human acute lymphoblastic leukemia cells); assay: MTT cancer cell growth inhibition; assay type: cell-based; settings: Homo sapiens, MOLT-4, 72 h, MTT, 72 hours incubation; read-out: GI50 Mol
Outline: as §1

[8] = test system: DU145 (human prostate cancer cells); assay: MTT cancer cell growth inhibition; assay type: cell-based; settings: Homo sapiens, DU-145, 72 h, MTT, 72 hours incubation; read-out: GI50 Du1
Outline: as §1

[9] = test system: KBM5-T315I (human chronic myelogenous leukemia); assay: MTT cancer cell growth inhibition; assay type: cell-based; settings: MTT, 72 hours incubation, KBM5-T315I cells, read-out: GI50 KBM5-T315I
Outline: as §1

[10] = test system: HT1080 (human fibrosarcoma cells); assay: MTT cancer cell growth inhibition; assay type: cell-based; settings: Homo sapiens, HT-1080, 72 h, MTT, 72 hours incubation; read-out: GI50 HT1
Outline: as §1

[11] = test system: MCF-7 (human breast cancer cells); assay: MTT cancer cell growth inhibition; assay type: cell-based; settings: Homo sapiens, MCF7, 72 h, 72 hours incubation, read-out: GI50 MCF
Outline: as §1

[12] = test system: Huh-7 (human hepatoma cells); assay: MTT cancer cell growth inhibition; assay type: cell-based; settings: MTT, 72 hours incubation, Huh-7 cells, read-out: GI50 Huh-7
Outline: as §1

[13] = test system: Hela (human cervical cancer cells); assay: MTT cancer cell growth inhibition; assay type: cell-based; settings: Homo sapiens, HeLa, 72 h, MTT, 72 hours incubation; read-out: GI50 Hela
Outline: as §1

HDAC2 = HDAC2 (Homo sapiens, UniProt Q92769); assay: HDAC biochemical activity measurement (fluorescent substrate deacetylation);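 note: HDAC2 enzyme with an acetyl-lysine fluorescent substrate, then developer added, fluorescence read at excitation 360 nm and emission 460 nm, inhibition measured across several compound concentrations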; settings: 37° C. 30 minutes
[14] = Homo sapiens, MDA-MB-231, 72 h, read-out: GI50 MDA-MB-231, MTT, 72 hours incubation, MDA-MB-231 cells

Sequence of HDAC2 (Q92769 whole entry, species assumed): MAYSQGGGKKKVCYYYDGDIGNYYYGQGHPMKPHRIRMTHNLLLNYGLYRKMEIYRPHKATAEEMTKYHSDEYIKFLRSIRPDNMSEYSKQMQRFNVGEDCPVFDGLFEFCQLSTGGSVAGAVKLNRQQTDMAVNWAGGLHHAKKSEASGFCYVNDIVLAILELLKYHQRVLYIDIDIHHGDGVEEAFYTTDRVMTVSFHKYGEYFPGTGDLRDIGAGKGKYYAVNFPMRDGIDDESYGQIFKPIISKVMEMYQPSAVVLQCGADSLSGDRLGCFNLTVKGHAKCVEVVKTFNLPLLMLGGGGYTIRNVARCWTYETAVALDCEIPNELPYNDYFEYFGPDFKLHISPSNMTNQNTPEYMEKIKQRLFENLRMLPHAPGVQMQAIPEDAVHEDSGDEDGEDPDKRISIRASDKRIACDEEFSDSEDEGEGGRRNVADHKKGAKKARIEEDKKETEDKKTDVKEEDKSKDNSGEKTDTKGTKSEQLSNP
Sequence of HDAC1 (Q13547 whole entry, species assumed): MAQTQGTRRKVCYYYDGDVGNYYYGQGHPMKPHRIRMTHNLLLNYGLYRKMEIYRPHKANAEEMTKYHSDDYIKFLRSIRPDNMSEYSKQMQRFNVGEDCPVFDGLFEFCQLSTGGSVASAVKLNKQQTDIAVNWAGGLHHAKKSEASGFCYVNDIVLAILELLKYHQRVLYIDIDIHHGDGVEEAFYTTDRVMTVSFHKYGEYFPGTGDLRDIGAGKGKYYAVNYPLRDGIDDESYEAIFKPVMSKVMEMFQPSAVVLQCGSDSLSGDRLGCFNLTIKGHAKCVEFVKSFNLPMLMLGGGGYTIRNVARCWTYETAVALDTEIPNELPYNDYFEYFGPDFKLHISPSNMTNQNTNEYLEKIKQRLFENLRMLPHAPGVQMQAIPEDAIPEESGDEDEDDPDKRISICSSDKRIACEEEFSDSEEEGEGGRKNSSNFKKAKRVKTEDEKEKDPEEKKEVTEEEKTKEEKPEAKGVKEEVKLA

Row | Compound | IC50 HDAC7 (HDAC7) | IC50 (HDAC1) | GI50 [3] | GI50 [5] | GI50 [7] | GI50 [8] | GI50 [10] | GI50 [11] | GI50 [13] | IC50 (HDAC2) | GI50 ([1]; Homo sapiens, Bel-7402, 72 h) | GI50 ([2]; Homo sapiens, BGC-823, 72 h) | GI50 ([4]; Homo sapiens, SGC-7901, 72 h) | GI50 [6, 14] | GI50 ([9]; Homo sapiens, 72 h) | GI50 ([12]; Homo sapiens, Huh-7, 72 h) | other results
1 | C/C=C1\NC(=O)c2nc(ccc2F)CNC(=O)C[C@@H](/C=C/CCSC(C)=O)OC(=O)[C@H](C(C)C)NC1=O [Example 48] | no activity | 81 nM | 20 nM | 60 nM | 30 nM | 20 nM | 40 nM | 60 nM | 70 nM | 15 nM |  |  |  |  |  |  | GI50 [1]: 42 nM; GI50 [2]: 80 nM; GI50 [4]: 69 nM; GI50 ([6]; read-out: GI50 MDA-MB-231, MTT, 72 hours incubation, MDA-MB-231 cells): 35 nM; GI50 [9]: 61 nM; GI50 [12]: 35 nM
2 | C/C=C1\NC(=O)c2nc(ccc2F)CNC(=O)C[C@@H](/C=C/CCSC=O)OC(=O)[C@H](C(C)C)NC1=O [Example 51] | no activity | 46 nM | 60 nM | 40 nM | 20 nM | 40 nM | 70 nM | 70 nM | 80 nM | 52 nM | 72 nM | 60 nM | 45 nM | 29 nM | 77 nM | 29 nM | 
3 | C/C=C1\NC(=O)c2nc(ccc2F)CNC(=O)C[C@@H](/C=C/CCSC(=O)CCCCCCC)OC(=O)[C@H](CC)NC1=O [Example 54] | no activity | 74 nM | 40 nM | 60 nM | 30 nM | 20 nM | 50 nM | 60 nM | 90 nM | 24 nM | 51 nM | 40 nM | 64 nM | 34 nM | 63 nM | 34 nM | 
4 | C/C=C1\NC(=O)c2nc(ccc2F)CNC(=O)C[C@@H](/C=C/CCSC(=O)CCCCCCC)OC(=O)[C@H](C)NC1=O [Example 60] | no activity | 81 nM | 40 nM | 40 nM | 10 nM | 20 nM | 50 nM | 80 nM | 70 nM | 37 nM | 57 nM | 60 nM | 43 nM | 19 nM | 83 nM | 19 nM | 
5 | C/C=C1\NC(=O)c2ccc(F)c(n2)CNC(=O)C[C@@H](/C=C/CCSC(=O)CCCCCCC)OC(=O)[C@H](C)NC1=O [Example 62] | no activity | 46 nM | 20 nM | 40 nM | 30 nM | 10 nM | 80 nM | 60 nM | 90 nM | 27 nM | 83 nM | 60 nM | 46 nM | 31 nM | 64 nM | 31 nM | 
6 | C/C=C1\NC(=O)c2nc(ccc2F)CNC(=O)C[C@@H](/C=C/CCSC(C)=O)OC(=O)[C@H](C)NC1=O [Example 63] | no activity | 41 nM | 30 nM | 50 nM | 40 nM | 50 nM | 90 nM | 50 nM | 90 nM | 58 nM | 94 nM | 50 nM | 51 nM | 49 nM | 57 nM | 49 nM | 
7 | C/C=C1\NC(=O)c2ccc(F)c(n2)CNC(=O)C[C@@H](/C=C/CCSC(=O)CCCCCCC)OC(=O)[C@H](Cc2ccccc2)NC1=O [Example 71] | no activity | 51 nM | 50 nM | 30 nM | 20 nM | 60 nM | 80 nM | 20 nM | 70 nM | 29 nM | 84 nM | 50 nM | 35 nM | 29 nM | 28 nM | 29 nM | 
8 | C/C=C1\NC(=O)c2ccc(F)c(n2)CNC(=O)C[C@@H](/C=C/CCSC(C)=O)OC(=O)[C@H](CCCCN)NC1=O [Example 74] | no activity | 273 nM | 20 nM | 40 nM | 20 nM | 30 nM | 40 nM | 350 nM | 30 nM | 129 nM | 43 nM | 30 nM | 49 nM | 24 nM | 350 nM | 24 nM | 
